Calls of active or inactive are those of the source. The calls are words filed in the database; no cut-off is given here. Some results are limits rather than exact numbers.

These results are taken from ChEMBL document CHEMBL2057167, “Rapid identification of ETP-46992, orally bioavailable PI3K inhibitor, selective versus mTOR” (Bioorg Med Chem Lett, 2012).

The target in data set [1] is Serine/threonine-protein kinase mTOR (Homo sapiens, UniProt P42345). The data set can be described thus: Inhibition of mTOR.
The target in data set [2] is T1, Phosphatidylinositol 4,5-bisphosphate 3-kinase catalytic subunit alpha isoform (Homo sapiens, UniProt P42336). As to the kind of experiment: Inhibition of PI3Kalpha-mediated AKT phosphorylation at Ser473 in human U2OS cells by Western blot analysis. Type of data set: cell-based. A general note: In western blotting, separated proteins are transferred to a membrane and probed.
T1 sequence (P42336 whole entry, canonical isoform): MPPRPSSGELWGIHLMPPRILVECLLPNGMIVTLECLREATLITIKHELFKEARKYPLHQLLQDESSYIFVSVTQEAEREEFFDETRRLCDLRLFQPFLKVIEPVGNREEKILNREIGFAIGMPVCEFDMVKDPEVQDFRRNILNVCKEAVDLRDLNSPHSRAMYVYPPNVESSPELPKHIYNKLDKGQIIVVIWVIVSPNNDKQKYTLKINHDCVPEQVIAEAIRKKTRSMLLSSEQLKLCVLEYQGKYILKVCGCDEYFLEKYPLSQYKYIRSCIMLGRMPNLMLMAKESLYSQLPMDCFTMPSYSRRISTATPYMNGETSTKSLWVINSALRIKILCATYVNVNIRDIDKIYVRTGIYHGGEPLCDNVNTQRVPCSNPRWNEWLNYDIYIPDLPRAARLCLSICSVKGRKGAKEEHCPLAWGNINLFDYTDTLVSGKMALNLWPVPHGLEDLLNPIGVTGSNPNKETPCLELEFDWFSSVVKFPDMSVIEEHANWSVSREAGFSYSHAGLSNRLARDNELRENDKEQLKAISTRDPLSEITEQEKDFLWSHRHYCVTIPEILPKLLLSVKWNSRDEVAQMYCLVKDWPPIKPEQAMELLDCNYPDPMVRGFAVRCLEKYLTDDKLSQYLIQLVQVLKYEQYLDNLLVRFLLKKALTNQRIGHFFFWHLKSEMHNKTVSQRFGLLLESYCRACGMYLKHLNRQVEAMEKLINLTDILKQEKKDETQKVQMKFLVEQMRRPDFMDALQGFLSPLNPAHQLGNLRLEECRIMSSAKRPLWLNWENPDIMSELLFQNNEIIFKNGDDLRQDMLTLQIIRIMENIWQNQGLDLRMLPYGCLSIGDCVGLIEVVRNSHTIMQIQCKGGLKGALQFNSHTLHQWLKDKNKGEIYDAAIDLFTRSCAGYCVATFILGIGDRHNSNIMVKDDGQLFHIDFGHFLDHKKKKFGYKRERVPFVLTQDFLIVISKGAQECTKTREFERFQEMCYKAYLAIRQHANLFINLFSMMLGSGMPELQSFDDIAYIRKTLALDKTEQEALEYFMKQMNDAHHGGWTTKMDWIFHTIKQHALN

Data set [3] concerns the target T1, Phosphatidylinositol 4,5-bisphosphate 3-kinase catalytic subunit alpha isoform. The data set can be described thus: Inhibition of PI3Kalpha assessed as accumulation of ADP.
A further data set concerns Lung. The data set can be described thus: Reduction of [18F]-FDG uptake in GEMM mouse lung tumor model driven by KRasG12V oncogenic mutation lung after 45 mins by PET-CT analysis. Type of data set: functional, tissue-based.
Data set [4] concerns the target Phosphatidylinositol 4,5-bisphosphate 3-kinase catalytic subunit beta isoform (Homo sapiens, UniProt P42338). As to the kind of experiment: Inhibition of human PI3Kbeta by HTRF assay. The following applies: read-out: Ki(app).
Data set [5] is filed under the species Mus musculus. The data set can be described thus: Reduction of [18F]-FDG uptake in GEMM mouse lung tumor model driven by KRasG12V oncogenic mutation tumor after 45 mins by PET-CT analysis. Type of data set: functional. The following applies: Neoplasm.
A further data set concerns BT-474. As to the kind of experiment: Antitumor activity against human BT474 cells with PI3Kalpha […] mutated xenografted in MF-1 nude mouse assessed as tumor growth inhibition at 10 mg/kg, po qd for weekly 5 days for 2 weeks. Type of data set: functional. The conditions noted are these: read-out: GI. (In general: Xenograft models place foreign cells or tissue in a host animal.)

Data set [6] concerns the target Phosphatidylinositol 4,5-bisphosphate 3-kinase catalytic subunit gamma isoform (Homo sapiens, UniProt P48736). As to the kind of experiment: Inhibition of PI3Kgamma assessed as accumulation of ADP. The following applies: read-out: Ki(app).
Data set [7] deals with T2, Phosphatidylinositol 4,5-bisphosphate 3-kinase catalytic subunit delta isoform (Homo sapiens, UniProt O00329).
T2 sequence (O00329 whole entry): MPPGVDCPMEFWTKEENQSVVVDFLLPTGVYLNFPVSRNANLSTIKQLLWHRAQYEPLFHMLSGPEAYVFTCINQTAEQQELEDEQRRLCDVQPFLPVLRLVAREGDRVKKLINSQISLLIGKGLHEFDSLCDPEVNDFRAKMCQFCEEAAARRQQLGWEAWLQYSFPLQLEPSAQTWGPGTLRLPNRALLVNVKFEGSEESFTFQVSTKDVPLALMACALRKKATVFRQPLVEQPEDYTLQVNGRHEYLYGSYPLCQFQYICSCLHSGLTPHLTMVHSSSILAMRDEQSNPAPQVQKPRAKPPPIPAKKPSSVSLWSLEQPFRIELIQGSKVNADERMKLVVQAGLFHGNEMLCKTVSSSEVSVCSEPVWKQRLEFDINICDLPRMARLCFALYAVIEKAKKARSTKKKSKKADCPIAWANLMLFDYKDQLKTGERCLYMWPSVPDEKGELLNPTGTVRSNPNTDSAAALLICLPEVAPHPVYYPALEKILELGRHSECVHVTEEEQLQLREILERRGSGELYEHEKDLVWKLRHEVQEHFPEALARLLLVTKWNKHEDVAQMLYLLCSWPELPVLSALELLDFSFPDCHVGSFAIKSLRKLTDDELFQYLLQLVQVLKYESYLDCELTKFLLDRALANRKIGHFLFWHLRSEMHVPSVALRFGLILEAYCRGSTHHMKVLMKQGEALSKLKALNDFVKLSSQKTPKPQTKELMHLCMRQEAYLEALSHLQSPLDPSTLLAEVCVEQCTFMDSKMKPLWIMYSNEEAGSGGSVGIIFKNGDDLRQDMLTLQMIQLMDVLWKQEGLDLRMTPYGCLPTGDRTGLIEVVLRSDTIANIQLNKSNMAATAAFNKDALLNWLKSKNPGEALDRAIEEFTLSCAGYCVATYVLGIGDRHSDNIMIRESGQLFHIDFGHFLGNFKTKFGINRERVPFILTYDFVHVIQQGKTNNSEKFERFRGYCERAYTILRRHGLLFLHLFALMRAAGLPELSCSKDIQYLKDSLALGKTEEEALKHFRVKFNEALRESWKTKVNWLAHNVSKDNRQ
The data set can be described thus: Inhibition of human PI3Kdelta by HTRF assay. The following applies: read-out: Ki(app). (Time-resolved FRET reads energy transfer from a long-lived donor to a nearby acceptor.)

The subject of data set [8] is Mus musculus. As to the kind of experiment: Down regulation of phosphorylated AKT at S473 level in GEMM mouse lung tumor model driven by KRasG12V oncogenic mutation tumor at 10 mg/kg, po after 1 hr by Western blot analysis. Type of data set: functional.
Data set [9] deals with Mus musculus. As to the kind of experiment: Antitumor activity in GEMM mouse lung tumor model driven by KRasG12V oncogenic mutation assessed as tumor growth inhibition at 25 mg/kg, po qd for weekly 5 days for 3 weeks. Type of data set: functional. The following applies: read-out: GI.
A further data set deals with CYP2D6 (Homo sapiens, UniProt P10635). As to the kind of experiment: Inhibition of CYP2D6 at 10 uM. Type of data set: ADME.
Sequence of CYP2D6 (P10635 whole entry): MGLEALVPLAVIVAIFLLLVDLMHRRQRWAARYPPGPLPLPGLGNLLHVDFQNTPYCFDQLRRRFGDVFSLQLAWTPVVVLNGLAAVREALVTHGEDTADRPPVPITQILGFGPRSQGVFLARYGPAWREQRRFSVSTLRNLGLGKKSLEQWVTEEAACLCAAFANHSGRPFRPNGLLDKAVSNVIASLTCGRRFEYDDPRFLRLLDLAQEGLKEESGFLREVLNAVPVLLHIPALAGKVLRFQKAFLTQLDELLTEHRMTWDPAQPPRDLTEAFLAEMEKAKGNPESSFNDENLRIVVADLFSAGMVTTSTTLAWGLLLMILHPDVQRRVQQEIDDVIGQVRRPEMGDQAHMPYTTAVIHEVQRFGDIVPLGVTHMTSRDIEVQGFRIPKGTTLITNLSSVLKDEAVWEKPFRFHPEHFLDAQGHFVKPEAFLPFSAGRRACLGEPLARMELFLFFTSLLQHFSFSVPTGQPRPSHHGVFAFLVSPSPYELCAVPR
The species entered for the next data set is Homo sapiens. As to the kind of experiment: Selectivity ratio of IC50 for mTOR to IC50 for PI3Kalpha.
Data set [10] has as its system MDR1 (P-gp), human. As to the kind of experiment: Apparent permeability from apical to basolateral side in MDCK cells over expressing human MDR1 at 2 uM after 150 mins. Type of data set: ADME, cell-based, Canis lupus familiaris. The following applies: dog.
The target of the next data set is CYP3A4 (Homo sapiens, UniProt P08684). As to the kind of experiment: Inhibition of CYP3A4 at 10 uM. Type of data set: ADME.
Sequence of CYP3A4 (P08684 whole entry): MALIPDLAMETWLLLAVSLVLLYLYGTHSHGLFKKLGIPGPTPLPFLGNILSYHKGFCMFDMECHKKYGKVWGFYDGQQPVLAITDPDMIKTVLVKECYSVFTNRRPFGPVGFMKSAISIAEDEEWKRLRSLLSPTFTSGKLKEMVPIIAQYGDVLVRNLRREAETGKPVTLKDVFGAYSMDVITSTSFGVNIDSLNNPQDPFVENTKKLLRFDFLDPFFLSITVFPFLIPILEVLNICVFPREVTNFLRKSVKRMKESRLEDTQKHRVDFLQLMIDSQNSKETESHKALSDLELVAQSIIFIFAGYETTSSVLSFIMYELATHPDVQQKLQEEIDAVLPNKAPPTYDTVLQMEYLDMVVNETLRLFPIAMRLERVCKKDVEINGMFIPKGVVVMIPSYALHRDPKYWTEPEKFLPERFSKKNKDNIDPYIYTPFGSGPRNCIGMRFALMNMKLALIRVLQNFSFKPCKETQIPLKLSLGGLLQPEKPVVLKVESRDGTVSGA
Another data set addresses T3, CYP1A2 (Homo sapiens, UniProt P05177).
T3 sequence (P05177 whole entry): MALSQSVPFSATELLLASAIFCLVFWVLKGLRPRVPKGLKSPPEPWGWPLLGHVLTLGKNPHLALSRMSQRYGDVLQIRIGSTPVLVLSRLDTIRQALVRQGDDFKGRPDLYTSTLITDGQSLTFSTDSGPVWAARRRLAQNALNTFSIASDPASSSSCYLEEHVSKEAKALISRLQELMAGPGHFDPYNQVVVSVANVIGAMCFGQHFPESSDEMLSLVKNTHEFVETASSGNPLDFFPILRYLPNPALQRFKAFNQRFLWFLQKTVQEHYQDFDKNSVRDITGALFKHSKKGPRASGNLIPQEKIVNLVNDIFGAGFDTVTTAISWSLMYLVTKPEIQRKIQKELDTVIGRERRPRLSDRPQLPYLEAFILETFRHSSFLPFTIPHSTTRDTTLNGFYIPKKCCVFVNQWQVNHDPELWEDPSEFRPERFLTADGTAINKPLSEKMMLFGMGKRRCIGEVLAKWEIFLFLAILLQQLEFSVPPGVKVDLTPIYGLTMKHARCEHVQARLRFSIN
The data set can be described thus: Inhibition of CYP1A2 at 10 uM. Type of data set: ADME.

A short description of data set [11]: Metabolic stability in human liver microsomes assessed as compound remaining at 1 uM after 15 mins. Type of data set: ADME, Microsome. The conditions noted are these: read-out: Stability.
Data set [12] can be described thus: Metabolic stability in mouse liver microsomes assessed as compound remaining at 1 uM after 15 mins. Type of data set: ADME, Microsome. The conditions noted are these: read-out: Stability.
In a further data set the target is CYP2C19 (Homo sapiens, UniProt P33261). As to the kind of experiment: Inhibition of CYP2C19 at 10 uM. Type of data set: ADME.
Sequence of CYP2C19 (P33261 whole entry): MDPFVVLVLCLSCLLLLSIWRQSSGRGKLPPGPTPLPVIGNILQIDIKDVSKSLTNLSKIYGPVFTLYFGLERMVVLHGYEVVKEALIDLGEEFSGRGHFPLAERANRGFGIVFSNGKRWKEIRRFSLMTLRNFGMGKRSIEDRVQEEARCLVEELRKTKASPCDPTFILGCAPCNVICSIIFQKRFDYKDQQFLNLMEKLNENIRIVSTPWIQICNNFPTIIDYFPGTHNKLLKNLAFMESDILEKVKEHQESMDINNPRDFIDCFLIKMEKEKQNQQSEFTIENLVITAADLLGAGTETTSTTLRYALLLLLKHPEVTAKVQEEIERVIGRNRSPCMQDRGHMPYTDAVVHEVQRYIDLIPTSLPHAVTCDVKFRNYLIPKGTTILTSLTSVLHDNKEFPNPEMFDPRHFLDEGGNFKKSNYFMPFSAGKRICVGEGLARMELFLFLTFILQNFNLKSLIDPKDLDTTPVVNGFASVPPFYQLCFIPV
In data set [13] the test system is MDR1 (P-gp), human. As to the kind of experiment: Efflux ratio of permeability from basolateral to apical side over apical to basolateral side in MDCK cells over expressing human MDR1 at 2 uM after 150 mins. Type of data set: ADME, cell-based, Canis lupus familiaris. The following applies: dog.
A further data set addresses CYP2C9 (Homo sapiens, UniProt P11712). As to the kind of experiment: Inhibition of CYP2C9 at 10 uM. Type of data set: ADME.

Sequence of Phosphatidylinositol 4,5-bisphosphate 3-kinase catalytic subunit gamma isoform (P48736 whole entry, canonical isoform): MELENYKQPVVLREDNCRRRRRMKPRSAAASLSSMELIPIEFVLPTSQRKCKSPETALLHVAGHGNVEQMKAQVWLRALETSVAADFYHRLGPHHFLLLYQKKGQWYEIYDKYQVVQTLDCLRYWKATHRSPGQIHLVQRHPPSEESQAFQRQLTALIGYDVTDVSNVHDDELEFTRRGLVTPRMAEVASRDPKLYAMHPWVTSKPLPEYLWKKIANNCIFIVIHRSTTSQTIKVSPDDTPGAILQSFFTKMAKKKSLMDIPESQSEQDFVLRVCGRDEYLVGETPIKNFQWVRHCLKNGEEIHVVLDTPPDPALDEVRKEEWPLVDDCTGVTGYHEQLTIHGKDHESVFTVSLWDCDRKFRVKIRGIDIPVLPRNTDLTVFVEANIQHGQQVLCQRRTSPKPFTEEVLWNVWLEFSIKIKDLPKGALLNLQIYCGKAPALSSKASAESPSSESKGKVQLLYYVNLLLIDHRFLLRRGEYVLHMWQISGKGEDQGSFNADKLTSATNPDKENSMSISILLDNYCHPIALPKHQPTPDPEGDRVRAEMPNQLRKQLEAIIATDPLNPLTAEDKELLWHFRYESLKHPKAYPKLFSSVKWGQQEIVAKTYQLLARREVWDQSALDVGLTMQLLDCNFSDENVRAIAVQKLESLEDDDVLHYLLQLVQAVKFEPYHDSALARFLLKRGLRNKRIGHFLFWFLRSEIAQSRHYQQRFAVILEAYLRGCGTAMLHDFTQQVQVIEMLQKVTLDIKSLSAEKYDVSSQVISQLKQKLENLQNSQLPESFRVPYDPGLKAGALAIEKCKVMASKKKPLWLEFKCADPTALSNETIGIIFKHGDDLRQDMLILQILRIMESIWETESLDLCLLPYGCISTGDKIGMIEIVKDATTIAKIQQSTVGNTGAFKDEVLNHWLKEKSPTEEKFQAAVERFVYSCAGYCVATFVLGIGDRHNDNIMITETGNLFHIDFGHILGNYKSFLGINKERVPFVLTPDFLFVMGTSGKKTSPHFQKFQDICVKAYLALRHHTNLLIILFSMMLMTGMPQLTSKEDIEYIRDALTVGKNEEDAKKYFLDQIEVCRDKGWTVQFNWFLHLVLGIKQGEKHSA
Sequence of Phosphatidylinositol 4,5-bisphosphate 3-kinase catalytic subunit beta isoform (P42338 whole entry, canonical isoform): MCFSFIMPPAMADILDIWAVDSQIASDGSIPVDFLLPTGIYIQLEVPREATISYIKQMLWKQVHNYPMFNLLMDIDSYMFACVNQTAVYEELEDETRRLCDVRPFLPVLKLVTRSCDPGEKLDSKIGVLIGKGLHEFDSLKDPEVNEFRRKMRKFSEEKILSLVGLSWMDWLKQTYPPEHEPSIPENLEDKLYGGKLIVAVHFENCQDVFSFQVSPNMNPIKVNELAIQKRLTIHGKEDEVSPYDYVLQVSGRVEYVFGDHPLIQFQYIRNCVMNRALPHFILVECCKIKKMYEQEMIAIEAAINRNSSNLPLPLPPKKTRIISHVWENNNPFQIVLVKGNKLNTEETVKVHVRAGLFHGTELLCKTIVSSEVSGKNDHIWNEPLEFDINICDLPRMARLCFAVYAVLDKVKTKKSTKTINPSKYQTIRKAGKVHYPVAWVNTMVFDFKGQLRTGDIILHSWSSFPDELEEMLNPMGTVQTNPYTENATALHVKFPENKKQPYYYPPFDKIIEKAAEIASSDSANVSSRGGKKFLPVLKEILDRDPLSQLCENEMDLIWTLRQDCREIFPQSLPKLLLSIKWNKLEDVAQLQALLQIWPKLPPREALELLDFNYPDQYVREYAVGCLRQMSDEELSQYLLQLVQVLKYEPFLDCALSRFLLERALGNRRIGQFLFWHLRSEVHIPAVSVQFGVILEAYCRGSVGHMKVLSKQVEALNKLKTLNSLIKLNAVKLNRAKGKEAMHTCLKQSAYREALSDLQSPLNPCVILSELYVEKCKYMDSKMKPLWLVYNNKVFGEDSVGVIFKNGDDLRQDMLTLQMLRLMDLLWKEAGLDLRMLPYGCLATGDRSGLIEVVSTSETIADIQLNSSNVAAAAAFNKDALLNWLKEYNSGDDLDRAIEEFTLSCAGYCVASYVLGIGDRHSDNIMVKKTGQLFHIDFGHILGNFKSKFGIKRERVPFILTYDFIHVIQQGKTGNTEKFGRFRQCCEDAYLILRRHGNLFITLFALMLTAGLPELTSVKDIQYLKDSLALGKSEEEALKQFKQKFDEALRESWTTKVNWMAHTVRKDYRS

What is called IC50 is the concentration that gives 50% inhibition. Consider `COCCNC(=O)c1cn2cc(-c3cnc(N)nc3)nc(N3CCOCC3)c2n1`, for which the values for the IC50 in data set [1], in [2] and in data set [3] were 2290 nM, 14 nM and 2.7 nM, respectively.

Take `COCCNC(=O)c1nc2c(N3CCOCC3)nc(-c3cnc(N)nc3)cn2c1C`: the result in the data set on Lung and in the data set filed under Mus musculus [5] was Active. For the same compound, the values for the Ki in data set [4], in data set [6] and in [7] were 94.1 nM, 62.9 nM and 8 nM, respectively. Besides, in the data set on BT-474, the inhibition in vivo at 10 mg/kg is 58%. This compound also gave an Activity in the data set on Mus musculus [8] above 70%. The inhibition in vivo at 25 mg/kg in the data set with Mus musculus [9] is 61%.

As for `CN(C)CCCNC(=O)c1cn2cc(-c3cnc(N)nc3)nc(N3CCOCC3)c2n1`, the 50% inhibitory concentration (IC50) is above 5000 nM in [1], 8.7 nM in data set [2] and 0.6 nM in data set [3].

`CN(C)CCCNC(=O)c1cn2cc(-c3cccc4[nH]ncc34)nc(N3CCOCC3)c2n1` returned an IC50 in [2] of 429 nM.

The inhibition is the percentage by which the read-out fell short of the control. As a reminder, the Papp A→B is the apparent permeability from the apical to the basolateral side of a cell layer. The term efflux ratio denotes the permeability from basolateral to apical divided by that in the opposite direction, in the common usage. Turning to `NC(=O)c1cn2cc(-c3cnc(N)nc3)nc(N3CCOCC3)c2n1`, the inhibition at 10 µM came to 8% on CYP2D6; 17% on CYP3A4; 24% at CYP1A2; 13% at CYP2C19; 5% at CYP2C9. Also, the Ratio IC50 in the data set listed under Homo sapiens was above 50. In addition, the 50% inhibitory concentration (IC50) in [1] was 237 nM; in data set [2], 1.8 nM; in data set [3], 0.4 nM. In addition, the Papp A→B at 2.5 h, 2 µM in the data set with MDR1 (P-gp), human [10] was determined as 15.4 ×10⁻⁶ cm/s. Moreover, the remaining at 0.25 h, 1 µM was found to be 90% in data set [11] and 92% in data set [12]. Moreover, in the data set with MDR1 (P-gp), human [13], the efflux ratio at 2.5 h, 2 µM stood at 0.9.

Consider `Nc1ncc(-c2cn3cc(C(=O)NC4CCOCC4)nc3c(N3CCOCC3)n2)cn1`, for which the IC50 in data set [1] was found to be 751 nM.

Regarding `Nc1ncc(-c2cn3cc(C(=O)NCCN4CCOCC4)nc3c(N3CCOCC3)n2)cn1`, the IC50 in data set [1] was above 5000 nM; in [2], 34.3 nM; in [3], 10.4 nM.

For the compound `CN(C)CCNC(=O)c1cn2cc(-c3cnc(N)nc3)nc(N3CCOCC3)c2n1`, the figures for the IC50 in [1], in data set [2] and in data set [3] were above 5000 nM, 30.3 nM and 4.6 nM, respectively.

Take `COCCCNC(=O)c1cn2cc(-c3cnc(N)nc3)nc(N3CCOCC3)c2n1`: the IC50 was above 5000 nM in [1], 26 nM in data set [2] and 3.2 nM in [3].

For `COCCNC(=O)c1cn2c(Cl)c(-c3cnc(N)nc3)nc(N3CCOCC3)c2n1`, the half-maximal inhibitory concentration (IC50) was determined as 35.1 nM in data set [2] and 11.2 nM in data set [3].

For `Nc1ncc(-c2cn3cc(C(=O)N[C@H]4CC[C@H](O)CC4)nc3c(N3CCOCC3)n2)cn1`, in the data set listed under Homo sapiens, the Ratio IC50 is above 50. In addition, the IC50 was found to be 989 nM in [1] and 70 nM in data set [2].
